From patent US8937048B2, “Anti-angiogenic compounds” (Covx Technologies Ireland, Limited, priority 2008, dated 2015)
Where a SMILES comes first, the peptide text is derived from it. Bridges are numbered along the chain shown (N, C = ends). [ ]: non-standard residue; d: D form. The star is where a group is joined. Phe(4-COOH) = N[C@@H](Cc1ccc(C(=O)O)cc1)C(=O)O; X1 = O=C(COCC(=O)*)Nc1ccc(CCC(=O)N2CCC2=O)cc1; Nva = CCC[C@H](N)C(=O)O

What was measured:
[1] = molecular target: T1, recombinant human VEGF165 (Homo sapiens, UniProt P15692); experiment: VEGF peptide binding assay (competition ELISA, VEGF165 binding to coated VEGFR2/Fc)
T1 sequence (P15692 27-191 isoform P15692-4): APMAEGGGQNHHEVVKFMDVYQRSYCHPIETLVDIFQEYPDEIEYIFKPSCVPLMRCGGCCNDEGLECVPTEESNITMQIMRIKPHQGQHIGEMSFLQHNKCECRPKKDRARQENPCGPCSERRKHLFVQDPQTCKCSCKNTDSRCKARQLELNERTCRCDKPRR
Procedure, shortened: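 VEGFR2/Fc was coated, and peptides (0.128–10,000 nM, N-acetyl, C-amide) were preincubated with 25 ng/ml human VEGF165 and added for 1 h at RT. Bound VEGF was detected with biotinylated anti-VEGF, streptavidin-HRP and TMB at OD450. IC50 came from sigmoid dose-response fits of OD450 versus concentration.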

[2] = Mouse half-life (T 1/2) and screening half-life of Ang2 binding compounds; type: in vivo, Swiss Webster mice; conditions: mouse, in vivo; Table 5, screening half life (in parentheses), shorter test period; read-out: T ½ (Sc) hours, screening half life
Procedure: For “screening” T ½, test compounds were intravenously administered into male Swiss Webster mice. Blood samples were taken from 4 mice per time point via retroorbital sinus bleed at the following time points: 0.08, 5, and 32 hours. Blood level of test compounds were determined by ELISA. The data were reported as the percentage of test compounds at 32 hours versus 5 min. Normal T ½ was calculated in a similar fashion, after undergoing additional data analysis using WinNonlin version 4.1 (Pharsight Corporation). The data was fit to a model based upon the shape of the curve (i.e. a bi-exponential decline will be fit to a two compartment model, etc.) The criteria for best fit (i.e. lowest % CV) was based on iterative re-weighted least squares.

Row | Structure (SMILES) | IC50 [1] [nM] | half-life [2] [h]
1 | CC[C@H](C)[C@@H]1NC(=O)[C@H](CC(=O)O)NC(=O)[C@@H](NC(=O)[C@H](CC(N)=O)NC(=O)[C@@H]2CCCN2C(=O)[C@H](CCC(=O)O)NC(=O)[C@@H](NC(C)=O)C(C)C)CSSC[C@@H](C(=O)N[C@@H](Cc2ccccc2)C(=O)N[C@@H](CCC(=O)O)C(=O)N[C@@H](CCCNC(=N)N)C(=O)N[C@@H](CC(C)C)C(=O)N[C@@H](Cc2ccc(O)cc2)C(=O)NCC(=O)N[C@@H](CC(C)C)C(N)=O)NC(=O)[C@H](CCC(=O)O)NC(=O)[C@H](Cc2c[nH]c3ccccc23)NC(=O)[C@H](C(C)C)NC(=O)[C@H](Cc2c[nH]c3ccccc23)NC(=O)[C@H](CCSC)NC(=O)[C@H](C(C)C)NC(=O)[C@H](Cc2c[nH]cn2)NC1=O [Compound 72, VEPNCDIHVMWVWECFERLYGL] (Ac-VEPNCDIHVMWVWECFERLYGL-NH2; disulfide 5-15 (inferred)) | 4.8 | –
2 | CC[C@H](C)[C@@H]1NC(=O)[C@H](CC(=O)O)NC(=O)[C@@H](NC(=O)[C@H](CC(N)=O)NC(=O)[C@@H]2CCCN2C(=O)[C@H](CCC(=O)O)NC(=O)[C@@H](NC(C)=O)C(C)C)CSSC[C@@H](C(=O)N[C@@H](Cc2ccccc2)C(=O)N[C@@H](CCC(=O)O)C(=O)N[C@@H](CCCNC(=N)N)C(=O)N[C@@H](CC(C)C)C(=O)N[C@@H](Cc2ccc(O)cc2)C(=O)NCC(=O)N[C@H](C(=O)N[C@@H](CCC(N)=O)C(N)=O)C(C)C)NC(=O)[C@H](CCC(=O)O)NC(=O)[C@H](Cc2c[nH]c3ccccc23)NC(=O)[C@H](C(C)C)NC(=O)[C@H](Cc2c[nH]c3ccccc23)NC(=O)[C@H](CCSC)NC(=O)[C@H](C(C)C)NC(=O)[C@H](Cc2c[nH]cn2)NC1=O [Compound 74, VEPNCDIHVMWVWECFERLYGVQ] (Ac-VEPNCDIHVMWVWECFERLYGVQ-NH2; disulfide 5-15 (inferred)) | 4 | –
3 | CC[C@H](C)[C@@H]1NC(=O)[C@H](CC(=O)O)NC(=O)[C@@H](NC(=O)[C@H](CC(N)=O)NC(=O)[C@@H]2CCCN2C(=O)[C@H](CCC(=O)O)NC(=O)[C@@H](NC(C)=O)C(C)C)CSSC[C@@H](C(=O)N[C@@H](Cc2ccccc2)C(=O)N[C@@H](CCC(=O)O)C(=O)N[C@@H](CCCNC(=N)N)C(=O)N[C@@H](CC(C)C)C(=O)N[C@@H](Cc2ccc(O)cc2)C(=O)NCC(=O)N[C@@H](CC(C)C)C(=O)N[C@@H](CCC(=O)O)C(N)=O)NC(=O)[C@H](CCC(=O)O)NC(=O)[C@H](Cc2c[nH]c3ccccc23)NC(=O)[C@H](C(C)C)NC(=O)[C@H](Cc2c[nH]c3ccccc23)NC(=O)[C@H](CCSC)NC(=O)[C@H](C(C)C)NC(=O)[C@H](Cc2c[nH]cn2)NC1=O [Compound 75, VEPNCDIHVMWVWECFERLYGLE] (Ac-VEPNCDIHVMWVWECFERLYGLE-NH2; disulfide 5-15 (inferred)) | 3 | –
4 | CC[C@H](C)[C@@H]1NC(=O)[C@H](CC(=O)O)NC(=O)[C@@H](NC(=O)[C@H](CC(N)=O)NC(=O)[C@@H]2CCCN2C(=O)[C@H](CCC(=O)O)NC(=O)[C@@H](NC(C)=O)C(C)C)CSSC[C@@H](C(=O)N[C@@H](Cc2ccccc2)C(=O)N[C@@H](CCC(=O)O)C(=O)N[C@@H](CCCNC(=N)N)C(=O)N[C@@H](CC(C)C)C(=O)N[C@@H](Cc2ccc(O)cc2)C(=O)NCC(=O)N2CCC[C@H]2C(=O)N[C@@H](CC(C)C)C(N)=O)NC(=O)[C@H](CCC(=O)O)NC(=O)[C@H](Cc2c[nH]c3ccccc23)NC(=O)[C@H](C(C)C)NC(=O)[C@H](Cc2c[nH]c3ccccc23)NC(=O)[C@H](CCSC)NC(=O)[C@H](C(C)C)NC(=O)[C@H](Cc2c[nH]cn2)NC1=O [Compound 76, VEPNCDIHVMWVWECFERLYGPL] (Ac-VEPNCDIHVMWVWECFERLYGPL-NH2; disulfide 5-15 (inferred)) | 2.3 | –
5 | CC[C@H](C)[C@@H]1NC(=O)[C@H](CC(=O)O)NC(=O)[C@@H](NC(=O)[C@H](CC(N)=O)NC(=O)[C@@H]2CCCN2C(=O)[C@H](CCC(=O)O)NC(=O)[C@@H](NC(C)=O)C(C)C)CSSC[C@@H](C(=O)N[C@@H](Cc2ccccc2)C(=O)N[C@@H](CCC(=O)O)C(=O)N[C@@H](CCCNC(=N)N)C(=O)N[C@@H](CC(C)C)C(=O)N[C@@H](Cc2ccc(O)cc2)C(=O)NCC(=O)N2CCC[C@H]2C(=O)N[C@@H](Cc2ccccc2)C(N)=O)NC(=O)[C@H](CCC(=O)O)NC(=O)[C@H](Cc2c[nH]c3ccccc23)NC(=O)[C@H](C(C)C)NC(=O)[C@H](Cc2c[nH]c3ccccc23)NC(=O)[C@H](CCSC)NC(=O)[C@H](C(C)C)NC(=O)[C@H](Cc2c[nH]cn2)NC1=O [Compound 77, VEPNCDIHVMWVWECFERLYGPF] (Ac-VEPNCDIHVMWVWECFERLYGPF-NH2; disulfide 5-15 (inferred)) | 1.8 | –
6 | CCC[C@H](NC(=O)[C@@H](NC(=O)[C@H](CCCCNC(=O)COCC(=O)Nc1ccc(CCC(=O)N2CCC2=O)cc1)NC(=O)[C@H](CC(=O)O)NC(=O)[C@H](CC(C)C)NC(=O)[C@H](CCC(=O)O)NC(=O)[C@H](CC(=O)O)NC(=O)[C@H](CC(C)C)NC(=O)[C@@H]1CCCN1C(=O)[C@H](CCC(N)=O)NC(=O)[C@H](Cc1ccc(O)cc1)NC(=O)[C@H](CCCCNC(C)=O)NC(=O)[C@H](CCC(N)=O)NC(C)=O)[C@@H](C)O)C(=O)N[C@@H](Cc1ccc(O)cc1)C(=O)N[C@@H](CC(=O)O)C(=O)N[C@@H](CCC(N)=O)C(=O)N[C@@H](Cc1ccccc1)C(=O)N[C@@H](CCSC)C(=O)N[C@@H](CC(C)C)C(=O)N[C@@H](CCC(N)=O)C(=O)N[C@@H](CCC(N)=O)C(=O)NCC(N)=O [Compound 4041] (Ac-QK(Ac)YQPLDELDK(X1)T[Nva]YDQFMLQQG-NH2) | – | 36
7 | CSCC[C@H](NC(=O)[C@H](Cc1ccccc1)NC(=O)[C@H](CCC(N)=O)NC(=O)[C@H](CC(=O)O)NC(=O)[C@H](Cc1ccc(O)cc1)NC(=O)[C@H](CCC(C)C)NC(=O)[C@@H](NC(=O)[C@H](CCCCNC(=O)COCC(=O)Nc1ccc(CCC(=O)N2CCC2=O)cc1)NC(=O)[C@H](CC(=O)O)NC(=O)[C@H](CC(C)C)NC(=O)[C@H](CCC(=O)O)NC(=O)[C@H](CC(=O)O)NC(=O)[C@H](CC(C)C)NC(=O)[C@@H]1CCCN1C(=O)[C@H](CCC(N)=O)NC(=O)[C@H](Cc1ccc(O)cc1)NC(=O)[C@H](CCCCNC(C)=O)NC(=O)[C@H](CCC(N)=O)NC(C)=O)[C@@H](C)O)C(=O)N[C@@H](CC(C)C)C(=O)N[C@@H](CCC(N)=O)C(=O)N[C@@H](CCC(N)=O)C(=O)NCC(N)=O [Compound 4042] | – | 42
8 | CSCC[C@H](NC(=O)[C@H](Cc1ccccc1)NC(=O)[C@H](CCC(N)=O)NC(=O)[C@H](CC(=O)O)NC(=O)[C@H](Cc1ccc(O)cc1)NC(=O)[C@H](CC(C)C)NC(=O)[C@@H](NC(=O)[C@H](CCCCNC(=O)COCC(=O)Nc1ccc(CCC(=O)N2CCC2=O)cc1)NC(=O)[C@H](CC(=O)O)NC(=O)[C@H](CC(C)C)NC(=O)[C@H](CCC(=O)O)NC(=O)[C@H](CC(=O)O)NC(=O)[C@H](CC(C)C)NC(=O)[C@@H]1CCCN1C(=O)[C@H](CCC(N)=O)NC(=O)[C@H](Cc1ccc(O)cc1)NC(=O)[C@H](CCCCNC(C)=O)NC(=O)[C@H](CCC(N)=O)NC(=O)CCOCCOCCNC(C)=O)[C@@H](C)O)C(=O)N[C@@H](CC(C)C)C(=O)N[C@@H](CCC(N)=O)C(=O)N[C@@H](CCC(N)=O)C(=O)NCC(N)=O [Compound 4052, (Amido 2-PEG)QKacY QPL DEL DK(0P)T LYD QFMLQQ G] | – | 31
9 | CSCC[C@H](NC(=O)[C@H](Cc1ccccc1)NC(=O)[C@H](CCC(N)=O)NC(=O)[C@H](CC(=O)O)NC(=O)[C@H](Cc1ccc(C(=O)O)cc1)NC(=O)[C@H](CC(C)C)NC(=O)[C@@H](NC(=O)[C@H](CCCCNC(=O)COCC(=O)Nc1ccc(CCC(=O)N2CCC2=O)cc1)NC(=O)[C@H](CC(=O)O)NC(=O)[C@H](CC(C)C)NC(=O)[C@H](CCC(=O)O)NC(=O)[C@H](CC(=O)O)NC(=O)[C@H](CC(C)C)NC(=O)[C@@H]1CCCN1C(=O)[C@H](CCC(N)=O)NC(=O)[C@H](Cc1ccc(O)cc1)NC(=O)[C@H](CC(N)=O)NC(=O)[C@H](CCC(N)=O)NC(C)=O)[C@@H](C)O)C(=O)N[C@@H](CC(C)C)C(=O)N[C@@H](CCC(N)=O)C(=O)N[C@@H](CCC(N)=O)C(=O)NCC(N)=O [Compound 4057] (Ac-QNYQPLDELDK(X1)TL[Phe(4-COOH)]DQFMLQQG-NH2) | – | 11
